Reference: US20250360160A1, “NEW MEDICAL USE OF TAFOXIPARIN” (DILAFOR AB, priority 2022, published 2025)

Test system: factor IIa
Assay: antifactor IIa activity
Assay type: biochemical
Conditions: definition of tafoxiparin

Chain of factor IIa (P01008 33-464): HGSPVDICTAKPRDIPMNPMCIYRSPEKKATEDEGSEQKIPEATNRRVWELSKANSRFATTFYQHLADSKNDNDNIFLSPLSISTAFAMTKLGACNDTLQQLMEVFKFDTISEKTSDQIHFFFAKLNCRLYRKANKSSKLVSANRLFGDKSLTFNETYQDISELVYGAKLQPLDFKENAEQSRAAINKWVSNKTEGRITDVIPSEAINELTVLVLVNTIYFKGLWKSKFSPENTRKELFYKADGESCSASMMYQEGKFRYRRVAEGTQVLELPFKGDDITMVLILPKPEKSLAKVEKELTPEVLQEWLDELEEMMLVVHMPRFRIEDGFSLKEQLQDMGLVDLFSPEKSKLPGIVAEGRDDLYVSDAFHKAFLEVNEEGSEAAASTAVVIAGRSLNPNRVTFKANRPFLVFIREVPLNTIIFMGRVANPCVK

tafoxiparin
antifactor IIa activity: less than 10 IU/mg
